Data set [1] relates to 3sp (formerly described as HCC-1.1). Put plainly: MTT cell viability assay (Example 40). The class given is cell-based. To be noted: Homo sapiens, 72 hours. As for the experimental part:
(§1) The human hepatoma cell lines and HepG2, PLC/PRF/5 (PLC), Hep3B and 3sp (formerly described as HCC-1.1) were cultivated in RPMI 1640 and 10% fetal calf serum (FCS) as described (31, 32). All cells were kept at 37° C. and 5% CO2 and were routinely screened for the absence of mycoplasma.
(§2) Cell viability was determined using the 3-(4,5 dimethylthiazol-2-yl)-2,5-diphenyltetrazolium bromide (MTT) assay. Briefly, cells were seeded in triplicates at a density of 6×10^3 cells per well. After 24 hours, cells were incubated with drug-containing medium for 72 hours. Cells were incubated with MTT solution (5 mg/ml; Sigma, St. Louis, USA) and medium was replaced with DMSO after five hours. The absorbance was measured at 620 nm by employing a microplate reader (Asys HiTech, Salzburg, Austria). MTT assays were repeated 3 times for each drug application and untreated cells were used as reference. IC50 values were obtained by log-linear interpolation of data points and are depicted by dose-response curves using the software GraphPad Prism® 5.01.

In data set [2] the test system is Hep3B. Put plainly: MTT cell viability assay (Example 40). The class given is cell-based. As to conditions: Homo sapiens, 72 hours. How it is done: as §1, §2
In data set [3] the test system is HepG2. In words: MTT cell viability assay (Example 40). As to conditions: Homo sapiens, 72 hours. The class given is cell-based. As for the experimental part:
as §1, §2

A further data set has as its system PLC/PRF/5 (PLC). Put plainly: MTT cell viability assay (Example 40). As to conditions: Homo sapiens, 72 hours. The format is cell-based. How it is done:
as §1, §2
For orientation: Formazan colour is commonly taken as a measure of viable cells.

Another data set has as its system HepG2 and PLC cells. Put plainly: Flow cytometry of cellular DNA content. The format is cell-based, human. To be noted: 24 hours. How it is done: The analysis of cellular DNA content was performed with a multicolor BD LSRFortessa cell analyzer (Becton Dickinson, Franklin Lakes, USA). Prior to the cytofluorometric measurement, about 5×10^5 cells were washed with phosphate buffered saline (PBS), fixed in 70% ethanol, washed again with PBS and treated with 100 μg RNAse A/50 μg propidium iodide per ml for 10 minutes to stain cellular DNA. The percentage of cells in the various cell cycle positions were calculated using a software package from the same manufacturer.
A general note: Flow cytometry measures light scatter and fluorescence of single cells or particles in a stream.

Data set [4] relates to Hep3B. Put plainly: Determination of long-term chemosensitivity (MTT). As to conditions: Homo sapiens. The class given is cell-based. How it is done:
as §2
(§3) The selection of chemoresistant cells was monitored every 6 weeks by the determination of IC50 values using the MTT assay. HCC cells showing higher IC50 values after treatment with inhibitors as compared to untreated cells are considered as chemoresistant.

The test system of data set [5] is HepG2. In words: Determination of long-term chemosensitivity (MTT). The class given is cell-based. As to conditions: Homo sapiens, read-out: IC50 for BP14, HepG2. How it is done: as §2, §3
Data set [6] can be described thus: Xenografted tumor formation and drug intervention. The format is in vivo. As to conditions: SCID, mouse, in vivo, ip; mice, intraperitoneal; read-out: maximum tolerated dose (MTD). How it is done: (§4) BrdU incorporation into cell nuclei directly indicates cell proliferation. Cultured cells were grown in medium containing 10 μM 5-bromo-2′-deoxy-uridine (BrdU) for 1 hour. After removing labeling medium, cells were fixed and DNA denatured with a fixing/denaturing solution containing 2 M HCl for 30 minutes at 37° C. To analyze BrdU incorporation in vivo, 200 μl Ringer solution containing 1 mg BrdU was intraperitoneally injected into xenografted mice 2 hours prior to analysis. Mice were sacrificed and tumor tissue was fixed in 4% formaldehyde and processed for immunohistochemistry. The incorporation of BrdU into cellular DNA was detected using a monoclonal anti-BrdU antibody (Sigma, St. Louis, USA) followed by incubation with a peroxidase-conjugated secondary antibodies (Calbiochem, LaJolla, USA) at dilutions of 1:10,000.
(§5) 5×10^6 human hepatoma cells were re-suspended in 100 μl Ringer solution and subcutaneously injected into severe combined immunodeficient (SCID) mice (Harlan Laboratories, San Pietro, Italy). Tumor volume was determined as described (36). Pharmacological intervention was performed in tumor-bearing mice for 17 days by daily intraperitoneal injection of either 5 mg/kg BA-12 or 1 mg/kg BP-14 in 100 μl of 0.01% DMSO. Control tumor-bearing mice were daily intraperitoneally injected with 100 μl of 0.01% DMSO only. All animal experiments were performed according to the Austrian guidelines for animal care and protection.
(§6) Mice were sacrificed and tumors were fixed as described (37). 4 μm thick, paraffin-embedded sections were stained with hematoxylin and eosin (H&E). For immunohistochemistry, sections were stained with anti-BrdU (Sigma, St. Louis, USA), 1:200. Biotinylated secondary antibodies were used at 1:200. The immunoperoxidase procedure was performed using a Vectastain Elite ABC kit (Vector Laboratories, CA, USA) as described by the manufacturer.

Data set [7] has as its system HepG2- and PLC-derived tumors. Put plainly: Xenografted tumor formation and drug intervention. The class given is in vivo. As for the experimental part: as §4, §5, §6
In another data set the test system is DEN-induced hepatoma. Put plainly: Diethylnitrosamine-induced liver cancer and drug intervention. The format is in vivo, C57BL/6J mice. To be noted: 3 cycles of 10 days, i.p., breaks of 7 days. How it is done: To initiate tumor development in the liver, 14-day-old C57BL/6J mice were intraperitoneally injected with a single dose of diethylnitrosamine (DEN, 25 mg/kg). After 8 month, pharmacological intervention was administrated in DEN-induced mice by 3 cycles of treatment with compounds for 10 days and a release from compounds for 7 days between the cycles. Either 5 mg/kg BA-12 or 1 mg/kg BP-14 was intraperitoneally injected in 100 μl of 0.01% DMSO. Control mice obtained 100 μl solvent only. Thereafter, mice were sacrificed and livers were fixed in 4% formaldehyde. Two researchers independently scored the diameters of neoplasia that could be monitored at the liver surface. Cancerous nodules with a diameter of up to 1 cm, covering more than 97% of all visible hepatomas, were included into the analysis. […] All animal experiments were performed according to the Austrian guidelines for animal care and protection.

A further data set deals with T1, CDK5/p35 (Homo sapiens, UniProt Q00535).
T1 construct: purchased ProQinase GmbH (Freiburg, Germany)
In words: Kinase inhibition assay, recombinant kinase, [γ-33P]ATP. The format is biochemical. As to conditions: Table 12; read-out: IC50, CDK5/p25NCK.

T1 sequence (Q00535 whole entry): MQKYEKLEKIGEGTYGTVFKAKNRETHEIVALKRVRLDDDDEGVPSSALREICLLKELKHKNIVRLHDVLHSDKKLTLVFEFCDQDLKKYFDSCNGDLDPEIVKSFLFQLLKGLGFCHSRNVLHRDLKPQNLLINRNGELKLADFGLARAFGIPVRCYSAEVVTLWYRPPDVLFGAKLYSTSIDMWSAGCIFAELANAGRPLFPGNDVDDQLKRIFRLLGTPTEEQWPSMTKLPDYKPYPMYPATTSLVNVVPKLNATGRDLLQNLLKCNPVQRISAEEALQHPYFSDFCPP
T1 sequence (Q15078 whole entry partner): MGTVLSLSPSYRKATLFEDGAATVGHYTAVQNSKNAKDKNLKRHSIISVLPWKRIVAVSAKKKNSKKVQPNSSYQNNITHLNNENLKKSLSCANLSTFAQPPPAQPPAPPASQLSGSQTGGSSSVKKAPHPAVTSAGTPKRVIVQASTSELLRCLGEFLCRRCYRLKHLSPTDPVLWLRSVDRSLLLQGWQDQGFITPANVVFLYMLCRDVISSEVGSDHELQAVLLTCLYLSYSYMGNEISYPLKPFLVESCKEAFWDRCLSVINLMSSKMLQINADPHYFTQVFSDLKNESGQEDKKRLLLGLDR

One may read the MTD as the highest dose tested that stayed within the study's limit of toxicity. With `NC1CCC(Nc2nc(NCc3ccc(-c4ccco4)nc3)c3ncn(C4CCCC4)c3n2)CC1` (stereo not drawn) [BP14, N^2-(4-amino-cyclohexyl)-9-cyclopentyl-N^6-(6-furan-2-yl-pyridin-3-ylmethyl)-9H-purine-2,6-diamine], the IC50 in data set [1] came to 480 nM; in the data set on Hep3B [2], 80 nM; with HepG2 [3], 120 nM; in the data set with PLC/PRF/5 (PLC), 20 nM; with Hep3B [4] (control, read-out: IC50 for BP14, Hep3B) it was 530 nM; with Hep3B [4] (long-term exposure at 1/16 IC50, read-out: IC50 for BP14, Hep3B), 420 nM. In addition, the IC50 is 450 nM with Hep3B [4] (long-term exposure at ¼ IC50, read-out: IC50 for BP14, Hep3B); 800 nM with Hep3B [4] (long-term exposure at ½ IC50, read-out: IC50 for BP14, Hep3B); 380 nM with Hep3B [4] (long-term exposure at ⅛ IC50, read-out: IC50 for BP14, Hep3B); 320 nM in the data set on HepG2 [5] (HepG2, control); 270 nM with HepG2 [5] (HepG2, long-term exposure at 1/16 IC50); 450 nM with HepG2 [5] (HepG2, long-term exposure at ¼ IC50). Further, the IC50 with HepG2 [5] (HepG2, long-term exposure at ½ IC50) came to 590 nM; in the data set on HepG2 [5] (HepG2, long-term exposure at ⅛ IC50) it was 390 nM; at CDK5/p35, 15 nM. In addition, the cell cycle distribution entry in the data set on HepG2 and PLC cells is “accumulation of HepG2 and PLC cells in the G2 phase”. Also, in data set [6], the maximum tolerated dose (MTD) at 17 days stood at 1 mg/kg. The “decrease of S-phase-positive cells by BrdU incorporation in tumors” value in data set [7] (HepG2- and PLC-derived tumors) was found to be 2 fold. Also, the “tumor volumes of xenografts” value in data set [7] (HepG2 and PLC xenografts, 1 mg/kg daily i.p., 17 days) is “strongly reduced tumor volumes”. For the same compound, the PLC tumors entry in data set [7] (PLC xenograft, 1 mg/kg daily i.p., 17 days) is recorded as “regression of PLC tumors”. Besides, in the data set with DEN-induced hepatoma, the “decrease of tumor nodules as compared to untreated control mice” value was 1.3 fold.

(Values after patent US20150368248A1, “2-SUBSTITUTED-6-BIARYLMETHYLAMINO-9-CYCLOPENTYL-9H-PURINE DERIVATIVES, USE THEREOF AS MEDICAMENTS, AND PHARMACEUTICAL COMPOSITIONS” (UNIVERZITA PALACKEHO V OLOMOUCI, priority 2013, published 2015).)
